“And” between values parts separate entries of the source, which are not always exact repeats. Identical values can stand only once. “Also recorded” adds a separate entry of the source.
What was measured:
Type in all cases: cell-based, HIV-1
Y188C-RTV = assay: Phenotypic susceptibility assay (site directed mutant RTV); settings: Y188C alone
Text: The resistance test vectors containing a functional luciferase gene cassette were constructed and host cells were transfected with the resistance test vector DNA. The resistant test vectors contained patient-derived reverse transcriptase and protease sequences that were either susceptible or resistant to the antiretroviral agents, such as nucleoside reverse transcriptase inhibitors, non-nucleoside reverse transcriptase inhibitors and protease inhibitors. The resistance test vector viral particles produced by transfecting the resistance test vector DNA into host cells, either in the presence or absence of protease inhibitors, were used to infect target host cells grown either in the absence of NRTI or NNRTI or in the presence of increasing concentrations of the drug. The amount of luciferase activity produced in infected target host cells in the presence of drug was compared to the amount of luciferase produced in infected target host cells in the absence of drug. […] The IC50 values were determined by plotting percent drug inhibition vs. log10 drug concentration.
(§1) Host cells were seeded in 10-cm-diameter dishes and were transfected several days after plating with resistance test vector plasmid DNA and the envelope expression vector. […] HIV capsid protein (p24) levels in the harvested cell culture media were determined by an EIA method as described by the manufacturer (SIAC; Frederick, Md.). […] The inhibitory effect of the drug was determined using the following equation: % luciferase inhibition=1−(RLUluc [drug]÷RLUluc)×100 where RLUluc [drug] is the relative light unit of luciferase activity in infected cells in the presence of drug and RLUluc is the Relative Light Unit of luciferase activity in infected cells in the absence of drug. […]
The Y188C mutation was introduced into the resistance test vector using the mega-primer method for site-directed mutagenesis (Sakar and Sommar, Ibid.). […] We determined the pattern of phenotypic susceptibility to the NNRTIs., delavirdine, nevirapine and efavirenz, in the Y188C-RTV.

Y181C-A98G-RTV = assay: as above; settings: for loss of susceptibility (fold, IC50) vs wild type control RTV: Y181C and A98G; for change in susceptibility: mutations at codons 181 and 98
Text: (§2) The resistance test vectors containing a functional luciferase gene cassette were constructed and host cells were transfected with the resistance test vector DNA. The resistant test vectors contained patient-derived reverse transcriptase and protease sequences that were either susceptible or resistant to the antiretroviral agents, such as nucleoside reverse transcriptase inhibitors, non-nucleoside reverse transcriptase inhibitors and protease inhibitors. The resistance test vector viral particles produced by transfecting the resistance test vector DNA into host cells, either in the presence or absence of protease inhibitors, were used to infect target host cells grown either in the absence of NRTI or NNRTI or in the presence of increasing concentrations of the drug. The amount of luciferase activity produced in infected target host cells in the presence of drug was compared to the amount of luciferase produced in infected target host cells in the absence of drug. Drug resistance was measured as the amount of drug required to inhibit by 50% the luciferase activity detected in the absence of drug (inhibitory concentration 50%, IC50). The IC50 values were determined by plotting percent drug inhibition vs. log10 drug concentration.
(§3) Host cells were seeded in 10-cm-diameter dishes and were transfected several days after plating with resistance test vector plasmid DNA and the envelope expression vector. Transfections were performed using a calcium-phosphate precipitation procedure. The cell culture media containing the DNA precipitate was replaced with fresh medium, from one to 24 hours, after transfection. Cell culture media containing resistance test vector viral particles was harvested one to four days after transfection and was passed through a […] filter before being stored at […]. HIV capsid protein (p24) levels in the harvested cell culture media were determined by an EIA method as described by the manufacturer (SIAC; Frederick, Md.). Before infection, target cells (293 and 293/T) were plated in cell culture media. Control infections were performed using cell culture media from mock transfections (no DNA) or transfections containing the resistance test vector plasmid DNA without the envelope expression plasmid. One to three or more days after infection the media was removed and cell lysis buffer (Promega) was added to each well. Cell lysates were assayed for luciferase activity (FIG. 3). The inhibitory effect of the drug was determined using the following equation: % luciferase inhibition=1−(RLUluc [drug]÷RLUluc)×100 where RLUluc [drug] is the relative light unit of luciferase activity in infected cells in the presence of drug and RLUluc is the Relative Light Unit of luciferase activity in infected cells in the absence of drug. IC50 values were obtained from the sigmoidal curves that were generated from the data by plotting the percent inhibition of luciferase activity vs. the log10 drug concentration. The drug inhibition curves are shown in (FIG. 3).
The Y181C and A98G mutations were introduced alone and in combination into resistance test vectors using the mega-primer method for site-directed mutagenesis (Sakar and Sommar, Ibid.). Resistance test vectors containing the Y181C mutation (Y181C-RTV) and the A98G mutation (A98G-RTV) and both mutations (Y181C-A98G-RTV) were then tested using the phenotypic assay described earlier and the results were compared to those determined using a genetically defined resistance test vector that was wild type at position 181 and 98. We determined the pattern of phenotypic susceptibility to the NNRTIs, delavirdine, neviraphine and efavirenz, in the three vectors.

K101E-G190S-RTV = assay: as above; settings: for change in susceptibility (fold, IC50) vs wild type control RTV: K101E and G190S; for change in susceptibility: mutations at codons 101 and 190 (190S)
Text: as §2, §3
(§4) The K101E and G190S mutations were introduced alone and in combination into resistance test vectors using the megaprimer method for site-directed mutagenesis (Sakar and Sommar, Ibid.). Resistance test vectors containing the K101E mutation (K101E-RTV), the G190S mutation (G190S-RTV) were then tested using the phenotypic assay described earlier and the results were compared to those determined using a genetically defined resistance test vector that was wild type at positions 101 and 190. We determined the pattern of phenotypic susceptibility to the NNRTIs, delavirdine, nevirapine and efavirenz, in all three vectors.

K101E-RTV = assay: as above; settings: K101E alone
Text: as §2, §3, §4

Y188L-RTV = assay: as above; settings: for loss of susceptibility (fold, IC50) vs wild type control RTV: Y188L alone; for change in susceptibility: mutation at codon 188
Text: as §2, §3
The Y188L mutation was introduced into the resistance test vector using the mega-primer method for site-directed mutagenesis (Sakar and Sommar, Ibid.). A resistance test vector containing the Y188L mutation (Y188L-RTV) was then tested using the phenotypic assay described earlier and the results were compared to those determined using a genetically defined resistance test vector that was wild type at position 188. We determined the pattern of phenotypic susceptibility to the NNRTIs, delavirdine, nevirapine and efavirenz, in the Y188L-RTV. […] The approximate 100-fold loss of susceptibility to efavirenz was not as high as had been previously reported.

[1] = system: RTV-675, patient 98-675 (RT A98G); assay: Phenotypic susceptibility assay (patient RTV); settings: patient RTV pool
Description: The resistance test vectors containing a functional luciferase gene cassette were constructed and host cells were transfected with the resistance test vector DNA. The resistant test vectors contained patient-derived reverse transcriptase and protease sequences that were either susceptible or resistant to the antiretroviral agents, such as nucleoside reverse transcriptase inhibitors, non-nucleoside reverse transcriptase inhibitors and protease inhibitors. […] The IC50 values were determined by plotting percent drug inhibition vs. log10 drug concentration.
as §1

G190S-RTV = assay: Phenotypic susceptibility assay (site directed mutant RTV); settings: for change in susceptibility (fold, IC50) vs wild type control RTV: G190S alone, below 1 = increased susceptibility; for change in susceptibility: serine at position 190, no other NNRTI mutations
Text: as §2, §3
Resistance test vectors were constructed containing the G190S and G190A mutations. Mutations were introduced into the resistance test vector using the mega-primer PCR method for site-directed mutagenesis (Sakar and Sommar, Ibid.) Resistance test vectors containing the G190S or G190A mutations (G190S-RTV, or G190A-RTV) were tested using the phenotypic susceptibility assay and the results were compared to that of a genetically defined resistance test vector that was wild type at position G190. […]

SMILES	loss of susceptibility (fold, IC50) vs wild type control RTV (Y188C-RTV)	loss of susceptibility (fold, IC50) vs wild type control RTV (Y181C-A98G-RTV)	change in susceptibility (Y181C-A98G-RTV)	change in susceptibility (fold, IC50) vs wild type control RTV (K101E-G190S-RTV)	change in susceptibility (K101E-G190S-RTV)	loss of susceptibility (fold, IC50) vs wild type control RTV (K101E-RTV)	loss of susceptibility (fold, IC50) vs wild type control RTV (Y188L-RTV)	change in susceptibility (Y188L-RTV)	decrease in susceptibility (fold, IC50) [1]	change in susceptibility (fold, IC50) vs wild type control RTV (G190S-RTV)	change in susceptibility (G190S-RTV)
CC(C)Nc1cccnc1N1CCN(C(=O)c2cc3cc(NS(C)(=O)=O)ccc3[nH]2)CC1 [delavirdine]	3 fold	240 fold	significant decrease	1.4 fold	no change	5 fold	9 fold	slight decrease	2.1 fold	0.5 fold	increase
O=C1Nc2ccc(Cl)cc2[C@@](C#CC2CC2)(C(F)(F)F)O1 [efavirenz]	20 fold	7 fold	substantial decrease; also recorded: slight decrease	greater than 250 fold	substantial decrease	5 fold	109 fold and ~100 fold and 110 fold	significant decrease		8 fold and 7.6 fold	
Cc1ccnc2c1NC(=O)c1cccnc1N2C1CC1 [nevirapine]	30 fold	greater than 800 fold	substantial decrease	greater than 800 fold	substantial decrease	12 fold	greater than 800 fold	substantial decrease	6 fold	75 fold	decrease
